These results are taken from the NIST ThermoML archive (doi:10.1016/j.fluid.2018.01.025).

± gives the expanded uncertainty stated by the source.

The conditions of the series: 101.33 kPa, Liquid; for speed of sound: Frequency=2 MHz, Linear variable-path acoustic interferometer; for mass density: Vibrating tube method.

The speed of sound is how fast a sound wave travels through the sample. In general, mass density refers to the mass of a sample divided by its volume. As to `Nc1ccccc1` [aniline], the speed of sound runs as follows: (303.15 K) 1615 ± 2 m/s; (313.15 K) 1578 ± 2 m/s. Further, the mass density is 1012.78 ± 0.4 kg/m3 (303.15 K); 1008.64 ± 0.4 kg/m3 (308.15 K); 1004.49 ± 0.4 kg/m3 (313.15 K); 1000.36 ± 0.4 kg/m3 (318.15 K); 996.43 ± 0.4 kg/m3 (323.15 K).

On to `OCc1ccccc1` [benzenemethanol], for which the speed of sound was 1512 ± 2 m/s (303.15 K) and 1487 ± 2 m/s (313.15 K). In addition, the mass density stood at 1037.18 ± 0.14 kg/m3 (303.15 K); 1033.45 ± 0.14 kg/m3 (308.15 K); 1029.36 ± 0.14 kg/m3 (313.15 K); 1025.57 ± 0.14 kg/m3 (318.15 K); 1021.78 ± 0.14 kg/m3 (323.15 K).
